Test [1] relates to hKOPr. In words: Biased factor calculation from GTPγS and PRESTO-Tango data. To be noted: G-protein vs β-arrestin, DynA as reference; below 1 = β-arrestin bias. Also noted: species or system human. An excerpt:
To perform biased factor analyses, we followed the step-by-step protocol described by [Nagi and Pineyro (2016)]. In short, curve fitting was used to calculate τ and Ka values for G-protein and β-arrestin pathway activation. Log(τ/Ka) ratios were subtracted by log(τ/Ka) of DynA as the reference to yield ΔLog(τ/Ka) values for each peptide. In a final step for each peptide, ΔLog (τ/Ka) values for G-protein pathway activation were subtracted from ΔLog(τ/Ka) values for β-arrestin pathway activation and vice versa to calculate ΔΔLog(τ/Ka). The biased factor is yielded by delogging ΔΔLog (τ/Ka).
To confidently identify a G-protein-biased peptide of interest, it is essential to keep in mind that the responses we collected through GTPγS and PRESTO-Tango assay are not solely determined by drug signaling properties but also by the way the cell and different assays “perceive” the generation of this response. These different “perceptions” of the pharmacological stimulus may themselves be responsible for an imbalance among signals from different pathways. To avoid this, and to be able to correctly estimate whether a peptide is indeed biased, we applied the method proposed by [Kenakin et al. (2012)], that is based on the operational method proposed by [Black and Leff (1983)]. This method takes into consideration receptor occupation by the agonist, communication of the pharmacological stimulus to the system, and the processing of the stimulus by the system that produces the response.

The target in test [2] is hKOPr (Homo sapiens, UniProt P41145). The test is described as follows: cell-based. To be noted: for Emax: HEK293, read-out: β-Arrestin recruitment, efficacy at hKOPr Emax; for EC50: read-out: β-Arrestin recruitment, potency at hKOPr EC50. The test is classed as cell-based.
hKOPr (Homo sapiens, UniProt P41145), sequence (P41145 whole entry): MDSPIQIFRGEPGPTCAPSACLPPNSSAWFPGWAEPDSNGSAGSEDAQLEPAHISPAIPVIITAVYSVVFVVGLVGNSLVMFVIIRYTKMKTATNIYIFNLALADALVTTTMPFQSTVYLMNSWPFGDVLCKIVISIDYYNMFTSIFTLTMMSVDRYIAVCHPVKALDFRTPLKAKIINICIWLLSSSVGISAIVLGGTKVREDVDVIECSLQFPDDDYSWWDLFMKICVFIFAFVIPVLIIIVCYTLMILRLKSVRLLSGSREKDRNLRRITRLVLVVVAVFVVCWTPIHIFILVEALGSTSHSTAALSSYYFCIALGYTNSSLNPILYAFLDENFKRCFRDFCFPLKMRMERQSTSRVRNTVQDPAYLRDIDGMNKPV
The target in a further test is hDOPr (Homo sapiens, UniProt P41143). The test is described as follows: Competitive radio binding assay with [3H]-diprenorphine on hDOPr-CHO cell membranes. The following applies: read-out: Ki hDOPr; [3H]-diprenorphine 1 nM, 60 min 25°C; mean ± SEM.
hDOPr, sequence (P41143 whole entry): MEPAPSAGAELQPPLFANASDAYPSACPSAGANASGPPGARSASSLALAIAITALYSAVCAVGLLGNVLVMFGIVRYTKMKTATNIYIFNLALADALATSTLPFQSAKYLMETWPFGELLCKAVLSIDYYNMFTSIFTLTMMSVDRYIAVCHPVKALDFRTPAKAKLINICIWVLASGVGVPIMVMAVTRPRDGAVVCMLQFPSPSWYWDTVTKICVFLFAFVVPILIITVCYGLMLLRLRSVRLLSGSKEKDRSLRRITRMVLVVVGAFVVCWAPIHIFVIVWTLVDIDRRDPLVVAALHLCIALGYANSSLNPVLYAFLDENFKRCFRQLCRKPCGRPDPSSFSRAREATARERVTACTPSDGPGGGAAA

Where no end group is shown, it is not given here.

Turning to YGAFLRRAFKVVT [DynB_G3A/Q8A], the “biased factor at hKOPr” value in the test on hKOPr [1] was 0.6 ± 0.2. For the same sequence, on hKOPr [2], the “stimulation of the receptor (β-arrestin recruitment) in comparison to DynB_WT” value is on record as “lower stimulation”, the Emax came to 88.7 ± 2.6% and the EC50 was 66.1 ± 1.6 nM. Further, the Ki on hDOPr is 417 ± 52 nM.

As to YGGFSRRQFKVVT [DynB_L5S], in the test on hKOPr [1], the “biased factor at hKOPr” value is recorded as 0.7 ± 0.2. Besides, at hKOPr [2], the “potency for β-arrestin recruitment compared to DynB_WT” value is on record as “significantly lower potency”, the Emax turned out to be 95.1 ± 7.7% and the EC50 turned out to be 146 ± 26.5 nM. Further, on hDOPr, the Ki was 573 ± 22.6 nM.

The values are drawn from article PMC11557314 (Frontiers in Pharmacology, 2024).
